{"source": "patent US10927117B2", "about": "(BEIGENE SWITZERLAND GMBH, priority 2016, dated 2021)", "key": {"TEC": {"molecular_target": "T1, TEC (Homo sapiens, UniProt P42680)", "T1 sequence (P42680 1-631)": "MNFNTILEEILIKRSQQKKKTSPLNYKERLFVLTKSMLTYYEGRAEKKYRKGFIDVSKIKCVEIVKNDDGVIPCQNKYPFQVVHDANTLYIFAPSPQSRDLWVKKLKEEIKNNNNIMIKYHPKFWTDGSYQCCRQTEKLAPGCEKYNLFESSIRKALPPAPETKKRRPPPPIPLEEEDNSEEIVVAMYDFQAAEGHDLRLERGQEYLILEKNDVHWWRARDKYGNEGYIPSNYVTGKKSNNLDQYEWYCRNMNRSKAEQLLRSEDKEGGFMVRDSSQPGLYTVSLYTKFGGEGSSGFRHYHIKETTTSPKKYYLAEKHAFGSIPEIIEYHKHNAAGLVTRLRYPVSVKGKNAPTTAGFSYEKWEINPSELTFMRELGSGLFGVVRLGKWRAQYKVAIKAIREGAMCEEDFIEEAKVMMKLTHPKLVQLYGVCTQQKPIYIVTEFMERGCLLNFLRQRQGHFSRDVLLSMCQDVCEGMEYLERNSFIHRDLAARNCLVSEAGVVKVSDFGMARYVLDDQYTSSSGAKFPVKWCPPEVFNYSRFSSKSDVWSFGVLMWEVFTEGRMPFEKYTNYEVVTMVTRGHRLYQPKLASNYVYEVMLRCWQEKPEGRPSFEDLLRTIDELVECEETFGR", "assay": "IC50 determination of TEC (TR-FRET)", "format": "biochemical", "conditions": "at KM of ATP, 1-hour pre-incubation"}, "[1]": {"test_system": "Rec-1 cells (MCL cell line)", "assay": "Tumor cell proliferation, CellTiter-Glo, Rec-1", "format": "cell-based", "conditions": "Homo sapiens, Rec1, 144 h, Rec-1 cell line, 6-day exposure, mean of 3 independent assays, read-out: Potency IC50", "experimental": "(§1) 3 MCL cell lines (Rec-1, Mino and JEKO-1) and an ABC type diffuse large B-cell lymphoma cell line (TMD8) were used in this study. Cell lines were maintained in RPMI-1640 supplemented with 10% fetal bovine serum/FBS (Thermo Scientific); 100 units/ml penicillin (Gibco) and 0.1 mg/ml streptomycin (Gibco) and kept at 37° C. in a humidified atmosphere of 5% CO2 in air. Cell lines were reinstated from frozen stocks that were laid down within 30 passages from the original cells purchased.\n(§2) The growth-inhibitory activity of compounds in Rec-1, Mino, JEKO-1 and TMD-8 cells was determined using CellTiter-Glo luminescent cell viability assay (Promega). The number of cells seeded per well of a 96-well plate was optimized for each cell line to ensure logarithmic growth over 6 days treatment period. Cells were treated in triplicate with a 10-point dilution series. […] Mixture was mixed on an orbital shaker for 2 minutes to allow cell lysis, followed by 10 minutes incubation at room temperature to allow development and stabilization of luminescent signal, which corresponded to quantity of ATP and thus the quantity of metabolically active cells. Luminescent signal was measured using PHERAstar FS reader (BMG Labtech). IC50 values for cell viability were determined with GraphPad Prism software and were the mean of 3 independent assays."}, "[2]": {"test_system": "JEKO-1 cells (MCL cell line)", "assay": "Tumor cell proliferation, CellTiter-Glo, JEKO-1", "format": "cell-based", "conditions": "Homo sapiens, 144 h, JEKO-1 cell line, 6-day exposure, read-out: Potency IC50", "experimental": "as §1, §2"}, "[3]": {"assay": "Pharmacokinetics study in mouse", "format": "in vivo", "conditions": "ICR mice, oral gavage", "experimental": "For time course study, mice were randomly assigned into 7 groups with 4 mice per group. […] For dose dependency study, mice were randomly assigned into 9 groups with 4 mice per group. […] Treatments were administered by oral gavage (p.o.) in a volume of 10 ml/kg body weight. Body weight was assessed immediately before dosing and volume dosed was adjusted accordingly.\nPK SAMPLE PREPARATION: For time course study, blood samples (50 μL per mouse) were collected from the retro-orbital sinus under isoflurane/oxygen anesthesia at 15 min after dosing (this group of mice were also used for 24 hr time point) or heart puncture after euthanization for the other time points. For dose dependency study, blood samples were collected from the retro-orbital sinus under isoflurane/oxygen anesthesia at 30 minutes after dosing. Plasma was collected by centrifugation at 3,000 g for 10 minutes and was kept frozen in −80° C. until analysis.\nPK Analysis: maximum plasma concentration (Cmax) and time to reach Cmax (Tmax) were taken directly from the plasma concentration versus time profiles."}, "TMD-8 DLBCL xenografts": {"test_system": "TMD-8 DLBCL xenografts", "assay": "Efficacy study in TMD-8 xenograft model", "format": "in vivo, NOD/SCID mice", "experimental": "Animals were pre-treated with cyclophosphamide (prepared in saline, 150 mg/kg i.p.) and disulfiram (prepared in 0.8% Tween 80 in saline, 125 mg/kg p.o., one hour after each dose of cyclophosphamide) once daily for two days Animals were then inoculated with TMD-8 cells 24 hours after the second dose of cyclophosphamide. On the day of implantation, cell culture medium was replaced with fresh medium. Four hours later, media was removed and cells were collected as described above. Cells were re-suspended in cold (4° C.) PBS and same volume of matrigel (BD, Cat #356237) was added to give a final concentration of 2.5×10^7 cells/ml. Resuspended cells were placed on ice prior to inoculation The right axilla region of each mouse was cleaned with 75% ethanol prior to cell inoculation. Each animal was injected subcutaneously with 5×10^6 cells in 200 μl of cell suspension in the right front flank via a 26-gauge needle.\nFor in vivo efficacy studies, starting from day 3 after cell inoculation, animals were randomly assigned into desired number of groups with 10 mice per group. […] Treatments were administered by oral gavage (p.o.) in a volume of 10 ml/kg body weight. Body weight was assessed immediately before dosing and volume dosed was adjusted accordingly. Tumor volume was measured twice weekly in two dimensions using a calliper (measureable from day 11 post inoculation in this study). Tumor volume was calculated using the formula: V=0.5×(a×b^2) where a and b are the long and short diameters of the tumor, respectively. Statistical analysis was conducted using the student T-test. P<0.05 was considered statistically significant. One individual was responsible for tumor measurement for the entire duration of the study. Body weights were also recorded twice weekly. Mice were also being monitored daily for clinical signs of toxicity for the duration of the study."}}, "data": [{"compound": "C=CC(=O)N1CCC([C@@H]2CCNc3c(C(N)=O)c(-c4ccc(Oc5ccccc5)cc4)nn32)CC1", "note": "[Crystalline Form A, (S)-7-(1-acryloylpiperidin-4-yl)-2-(4-phenoxyphenyl)-4,5,6,7-tetra-hydropyrazolo[1,5-a]pyrimidine-3-carboxamide]", "values": [{"measurement": "IC50", "setting": "TEC", "value": 1.9, "unit": "nM"}, {"measurement": "IC50", "setting": "[1]", "value": 0.36, "unit": "nM"}, {"measurement": "IC50", "setting": "[2]", "value": 20, "unit": "nM"}, {"measurement": "absorption and elimination", "setting": "[3]", "value": "quickly absorbed and eliminated"}, {"measurement": "impact on animal body weight", "setting": "TMD-8 DLBCL xenografts; all treatment groups", "value": "no significant impact on animal body weight"}, {"measurement": "anti-tumor effects", "setting": "TMD-8 DLBCL xenografts; different dose levels BID p.o., 39 days", "value": "dose-dependent anti-tumor effects"}, {"measurement": "anti-tumor activity at lowest dose tested", "setting": "TMD-8 DLBCL xenografts; lowest dose tested, BID p.o.", "value": "strong anti-tumor activity"}]}]}
